Test results published in patent US6869589B1, “Cryptate compounds and methods for diagnosis and therapy” (Australian Nuclear Science & Technology Organization, priority 1999, dated 2005).

Assay: Biodistribution of ^64Cu complexes in balb/c mice
Protocol: The biodistribution of the ^64Cu complexes of compounds (1), (3) and (4) (0.10 ml intravenous injection) were evaluated in balb/c mice (5 animals per time point) at 3, 5, 10, 15, 20 and 30 minute time intervals. Biodistribution studies were performed in duplicate.

Nc1ccc(CNC23CNCCNCC(N)(CNCCNC2)CNCCNC3)cc1.[64Cu+2] [^64Cu-labelled compound (3)]
% injected dose per gram (BLADDER, 3 MIN): 11.36 % INJECTED DOSE PER GRAM | % injected dose per gram (BLADDER, 5 MIN): 12.31 % INJECTED DOSE PER GRAM | % injected dose per gram (BLADDER, 10 MIN): 14.36 % INJECTED DOSE PER GRAM | % injected dose per gram (BLADDER, 15 MIN): 10.54 % INJECTED DOSE PER GRAM | % injected dose per gram (BLADDER, 20 MIN): 13.45 % INJECTED DOSE PER GRAM | % injected dose per gram (BLADDER, 30 MIN): 2.74 % INJECTED DOSE PER GRAM | % injected dose per gram (BLOOD, 3 MIN): 7.74 % INJECTED DOSE PER GRAM | % injected dose per gram (BLOOD, 5 MIN): 8.19 % INJECTED DOSE PER GRAM | % injected dose per gram (BLOOD, 10 MIN): 5.23 % INJECTED DOSE PER GRAM | % injected dose per gram (BLOOD, 15 MIN): 4.39 % INJECTED DOSE PER GRAM | % injected dose per gram (BLOOD, 20 MIN): 3.05 % INJECTED DOSE PER GRAM | % injected dose per gram (BLOOD, 30 MIN): 1.25 % INJECTED DOSE PER GRAM | % injected dose per gram (BONE, 3 MIN): 1.68 % INJECTED DOSE PER GRAM | % injected dose per gram (BONE, 5 MIN): 2.11 % INJECTED DOSE PER GRAM | % injected dose per gram (BONE, 10 MIN): 1.29 % INJECTED DOSE PER GRAM | % injected dose per gram (BONE, 15 MIN): 1.36 % INJECTED DOSE PER GRAM | % injected dose per gram (BONE, 20 MIN): 1.11 % INJECTED DOSE PER GRAM | % injected dose per gram (BONE, 30 MIN): 0.72 % INJECTED DOSE PER GRAM | % injected dose per gram (GIT, 3 MIN): 2.66 % INJECTED DOSE PER GRAM | % injected dose per gram (GIT, 5 MIN): 2.88 % INJECTED DOSE PER GRAM | % injected dose per gram (GIT, 10 MIN): 1.80 % INJECTED DOSE PER GRAM | % injected dose per gram (GIT, 15 MIN): 2.92 % INJECTED DOSE PER GRAM | % injected dose per gram (GIT, 20 MIN): 1.05 % INJECTED DOSE PER GRAM | % injected dose per gram (GIT, 30 MIN): 0.55 % INJECTED DOSE PER GRAM | % injected dose per gram (HEART, 3 MIN): 2.79 % INJECTED DOSE PER GRAM | % injected dose per gram (HEART, 5 MIN): 3.00 % INJECTED DOSE PER GRAM | % injected dose per gram (HEART, 10 MIN): 2.03 % INJECTED DOSE PER GRAM | % injected dose per gram (HEART, 15 MIN): 1.56 % INJECTED DOSE PER GRAM | % injected dose per gram (HEART, 20 MIN): 1.24 % INJECTED DOSE PER GRAM | % injected dose per gram (HEART, 30 MIN): 0.50 % INJECTED DOSE PER GRAM | % injected dose per gram (KIDNEY, 3 MIN): 22.41 % INJECTED DOSE PER GRAM | % injected dose per gram (KIDNEY, 5 MIN): 18.99 % INJECTED DOSE PER GRAM | % injected dose per gram (KIDNEY, 10 MIN): 13.41 % INJECTED DOSE PER GRAM | % injected dose per gram (KIDNEY, 15 MIN): 10.26 % INJECTED DOSE PER GRAM | % injected dose per gram (KIDNEY, 20 MIN): 9.98 % INJECTED DOSE PER GRAM | % injected dose per gram (KIDNEY, 30 MIN): 5.95 % INJECTED DOSE PER GRAM | % injected dose per gram (LIVER, 3 MIN): 1.94 % INJECTED DOSE PER GRAM | % injected dose per gram (LIVER, 5 MIN): 2.00 % INJECTED DOSE PER GRAM | % injected dose per gram (LIVER, 10 MIN): 1.46 % INJECTED DOSE PER GRAM | % injected dose per gram (LIVER, 15 MIN): 1.24 % INJECTED DOSE PER GRAM | % injected dose per gram (LIVER, 20 MIN): 1.04 % INJECTED DOSE PER GRAM | % injected dose per gram (LIVER, 30 MIN): 0.72 % INJECTED DOSE PER GRAM | % injected dose per gram (LUNGS, 3 MIN): 5.48 % INJECTED DOSE PER GRAM | % injected dose per gram (LUNGS, 5 MIN): 5.74 % INJECTED DOSE PER GRAM | % injected dose per gram (LUNGS, 10 MIN): 4.00 % INJECTED DOSE PER GRAM | % injected dose per gram (LUNGS, 15 MIN): 3.25 % INJECTED DOSE PER GRAM | % injected dose per gram (LUNGS, 20 MIN): 2.59 % INJECTED DOSE PER GRAM | % injected dose per gram (LUNGS, 30 MIN): 1.13 % INJECTED DOSE PER GRAM | % injected dose per gram (MUSCLE, 3 MIN): 1.98 % INJECTED DOSE PER GRAM | % injected dose per gram (MUSCLE, 5 MIN): 3.17 % INJECTED DOSE PER GRAM | % injected dose per gram (MUSCLE, 10 MIN): 1.73 % INJECTED DOSE PER GRAM | % injected dose per gram (MUSCLE, 15 MIN): 2.40 % INJECTED DOSE PER GRAM | % injected dose per gram (MUSCLE, 20 MIN): 2.13 % INJECTED DOSE PER GRAM | % injected dose per gram (MUSCLE, 30 MIN): 0.50 % INJECTED DOSE PER GRAM | % injected dose per gram (SKIN, 3 MIN): 5.63 % INJECTED DOSE PER GRAM | % injected dose per gram (SKIN, 5 MIN): 6.18 % INJECTED DOSE PER GRAM | % injected dose per gram (SKIN, 10 MIN): 4.86 % INJECTED DOSE PER GRAM | % injected dose per gram (SKIN, 15 MIN): 4.49 % INJECTED DOSE PER GRAM | % injected dose per gram (SKIN, 20 MIN): 3.41 % INJECTED DOSE PER GRAM | % injected dose per gram (SKIN, 30 MIN): 1.45 % INJECTED DOSE PER GRAM | % injected dose per gram (SPLEEN, 3 MIN): 1.96 % INJECTED DOSE PER GRAM | % injected dose per gram (SPLEEN, 5 MIN): 2.01 % INJECTED DOSE PER GRAM | % injected dose per gram (SPLEEN, 10 MIN): 1.26 % INJECTED DOSE PER GRAM | % injected dose per gram (SPLEEN, 15 MIN): 1.09 % INJECTED DOSE PER GRAM | % injected dose per gram (SPLEEN, 20 MIN): 0.93 % INJECTED DOSE PER GRAM | % injected dose per gram (SPLEEN, 30 MIN): 0.39 % INJECTED DOSE PER GRAM | % injected dose per gram (STOMACH, 3 MIN): 2.69 % INJECTED DOSE PER GRAM | % injected dose per gram (STOMACH, 5 MIN): 3.11 % INJECTED DOSE PER GRAM | % injected dose per gram (STOMACH, 10 MIN): 2.35 % INJECTED DOSE PER GRAM | % injected dose per gram (STOMACH, 15 MIN): 1.91 % INJECTED DOSE PER GRAM | % injected dose per gram (STOMACH, 20 MIN): 1.54 % INJECTED DOSE PER GRAM | % injected dose per gram (STOMACH, 30 MIN): 0.60 % INJECTED DOSE PER GRAM
